Data reported in article PMC9821843, “Powerful Potential of Polyfluoroalkyl-Containing 4-Arylhydrazinylidenepyrazol-3-ones for Pharmaceuticals” (Molecules, 2022).
Values after ≈ are worked out from the molar mass of the structure shown. Values joined by “and” are separate entries in the source; they are usually repeats but may differ in a detail not shown here. Equal entries are not always repeated. Where two headings read alike, the source gives them in different places.

How the values were obtained:
[1] = Acute toxicity evaluation in mice (ip); conditions: CD-1, mouse, in vivo, 300 mg/kg
Protocol: The toxicity evaluation was performed on CD-1 mice. […] The tested compounds in 1% starch mucilage were injected intraperitoneally into three mice. Then, animals were observed during 14 days, the number of deaths was counted and % of viability calculated.

[2] = tested on: Neisseria gonorrhoeae ATCC 49226/NCTC 12700; test: Antibacterial activity against Neisseria gonorrhoeae; format: cell-based; conditions: read-out: MIC against Neisseria gonorrhoeae
[3] = ABTS radical cation scavenging activity assay; design: key to ABTS•+-scavenging activity, TEAC (trolox equivalent antioxidant capacity): TEAC = ratio of compound slope to Trolox slope vs ABTS absorbance; conditions: mean ± SEM; for ABTS•+-scavenging activity, TEAC (trolox equivalent antioxidant capacity): n.a. = inactive
Summary of the method: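 ABTS•+ (from 7 mM ABTS plus 2.45 mM persulfate) mixed with compound, 5 × 10^–7–4 × 10^–4 M, 1 h at 30 °C; absorbance decrease read at 734 nm. TEAC from slope ratio versus Trolox; IC50 as 50% radical reduction for compounds exceeding 60% reduction at 100 µM.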

[4] = target: porcine liver carboxylesterase (CES, EC 3.1.1.1) (Sus scrofa, UniProt Q29550); test: Inhibition of porcine liver carboxylesterase (4-NPA colorimetric assay); format: biochemical; conditions: 20 µM; n.a. = inactive at 20 µM; mean ± SEM, n = 3
Chain of porcine liver carboxylesterase (CES, EC 3.1.1.1) (Q29550 19-566): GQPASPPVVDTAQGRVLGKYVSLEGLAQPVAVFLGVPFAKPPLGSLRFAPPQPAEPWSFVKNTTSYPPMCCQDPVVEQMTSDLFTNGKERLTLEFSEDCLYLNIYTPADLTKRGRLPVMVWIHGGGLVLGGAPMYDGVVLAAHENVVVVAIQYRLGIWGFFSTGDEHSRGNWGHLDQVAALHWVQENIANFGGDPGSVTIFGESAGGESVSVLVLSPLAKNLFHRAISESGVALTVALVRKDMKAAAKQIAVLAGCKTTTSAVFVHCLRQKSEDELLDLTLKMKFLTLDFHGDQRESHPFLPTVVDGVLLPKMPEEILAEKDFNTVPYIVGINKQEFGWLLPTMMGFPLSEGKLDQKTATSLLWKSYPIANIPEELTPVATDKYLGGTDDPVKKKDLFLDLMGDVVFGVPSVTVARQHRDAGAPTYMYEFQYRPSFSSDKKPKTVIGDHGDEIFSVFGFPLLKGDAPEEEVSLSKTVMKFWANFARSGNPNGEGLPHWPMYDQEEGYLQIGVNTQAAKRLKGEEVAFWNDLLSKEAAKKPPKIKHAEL
Excerpt: The following enzymes were purchased from Sigma-Aldrich (Saint Louis, MO, USA): porcine liver carboxylesterase (CES, EC 3.1.1.1), human erythrocyte acetylcholinesterase (AChE, EC 3.1.1.7) and equine serum butyrylcholinesterase (BChE, EC 3.1.1.8). Substrates for CES, AChE and BChE were 4-nitrophenyl acetate (4-NPA), acetylthiocholine iodide (ATCh) and butyrylthiocholine iodide (BTCh), respectively, and the colorimetric reagent for the AChE and BChE assays was 5,5’-dithio-bis-(2-nitrobenzoic acid) (DTNB) (Sigma-Aldrich). All the kinetic experiments were performed under standard conditions, according to the protocol of IPAC RAS for a reversible inhibitors study.
The CES (porcine liver) activity was assessed colorimetrically in 0.1 M K/Na phosphate buffer pH 8.0, 25 °C, by measuring the absorbance of 4-nitrophenol at 405 nm. Final enzyme and substrate (4-NPA) concentrations were 0.02 unit/mL and 1 mM, respectively. Reagent blanks included all constituents except enzyme.
Test compounds were dissolved in DMSO. Reaction mixtures contained a final DMSO concentration of 2% (v/v). Enzyme inhibition was first assessed at a single concentration of 20 µM for each compound after a 5 min incubation at 25 °C in three separate experiments. […] Substrate was then added and residual enzyme activity relative to an inhibitor-free control was measured using a Bio-Rad Benchmark Plus microplate reader (Marnes-la-Coquette, France).
Measurements were performed in a Bio-Rad Benchmark Plus microplate reader. Each experiment was performed in triplicate. Plots, linear regressions and values of IC50, were determined using Origin 6.1 for Windows, OriginLab (Northampton, MA, USA). Results were calculated using GraphPad Prism version 6.05 for Windows, GraphPad Software (La Jolla, CA, USA) and presented as mean ± SEM.

Sprague-Dawley (SD) rats = test: Hot plate test (analgesic activity); format: in vivo; conditions: ip; for change in vivo at 15 mg/kg: Rattus norvegicus
Summary of the method: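 Test compounds were given i.p. as suspensions in 1% starch mucilage to SD rats (3 male, 3 female per group), vehicle as negative control. At 1 and 2 h post-dose, latency to nociceptive response (jumping, hind paw licking/shaking) on a 50 °C plate was recorded, 30 s cutoff.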

[5] = hot plate test, rats, dose 15 mg/kg, 1 h, n.a. = inactive (p > 0.05), read-out: Latent Period Prolongation, % 1 h
[6] = hot plate test, rats, dose 15 mg/kg, 2 h, n.a. = inactive (p > 0.05), read-out: Latent Period Prolongation, % 2 h
[7] = 1 h, read-out: Latent Period Prolongation, % 1 h
[8] = 2 h, read-out: Latent Period Prolongation, % 2 h

Row | SMILES | survival at 14 days [1] [%] | MIC [2] [µg/mL] | IC50 [3] [µM] | ABTS•+-scavenging activity, TEAC (trolox equivalent antioxidant capacity) [3] | inhibition at 20 µM [4] [%] | change in vivo at 15 mg/kg (Sprague-Dawley (SD) rats; [5]) [%] | change in vivo at 15 mg/kg (Sprague-Dawley (SD) rats; [6]) [%] | change in vivo at 15 mg/kg (Sprague-Dawley (SD) rats; [7]) [%] | change in vivo at 15 mg/kg (Sprague-Dawley (SD) rats; [8]) [%] | analgesic activity in the hot plate test (Sprague-Dawley (SD) rats; SD rats, dose 15 mg/kg, 1 and 2 h)
1 | Cc1ccc(N/N=C2\C(=O)NN=C2C(F)(F)C(F)(F)F)cc1 [6a, (4Z)-4-[2-(4-Methylphenyl)hydrazinylidene]-5-(pentafluoroethyl)-2,4-dihydro-3H-pyrazol-3-one] | 100 | 62.5 (≈ 195 µM) | 46.8 ± 2.1 | 0.45 ± 0.03 | 7.8 ± 1.4 | 83.9 | 63.3 | – | – | –
2 | CS(=O)(=O)c1ccc(N/N=C2\C(=O)N(c3ccccc3)N=C2C(F)(F)F)cc1 [5m, (4Z)-4-(2-[4-(Methylsulfonyl)phenyl]hydrazinylidene)-2-phenyl-5-(trifluoromethyl)-2,4-dihydro-3H-pyrazol-3-one] | 100 | 125 (≈ 305 µM) | – | – | 20.4 ± 1.6 | 116 | 144 | – | – | –
3 | Cc1ccc(N/N=C2\C(=O)NN=C2C(F)(F)F)cc1 [5b, (4Z)-4-[2-(4-Methylphenyl)hydrazinylidene]-5-(trifluoromethyl)-2,4-dihydro-3H-pyrazol-3-one] | 100 | 62.5 (≈ 231 µM) | 46.2 ± 2.4 | 0.42 ± 0.03 | 10.1 ± 1.7 | 69.5 | 59.7 | – | – | –
4 | CC1=NN(c2ccccc2)C(=O)/C1=N\Nc1ccc(C)cc1 [9b, (4Z)-5-Methyl-4-[2-(4-methylphenyl)hydrazinylidene]-2-phenyl-2,4-dihydro-3H-pyrazol-3-one] | 100 | > 250 | 28.3 ± 1.2 | 0.8 and 0.80 ± 0.05 | 10.3 ± 2.4 | – | 140 | – | – | –
5 | Cc1ccc(N/N=C2\C(=O)N(c3ccccc3)N=C2C(F)(F)C(F)(F)C(F)(F)F)cc1 [7b, (4Z)-5-(Heptafluoropropyl)-4-[2-(4-methylphenyl)hydrazinylidene]-2-phenyl-2,4-dihydro-3H-pyrazol-3-one] | 100 | 31.2 (≈ 69.9 µM) | – | 0.03 ± 0.002 | – | – | – | 144 | 82.3 | –
6 | O=C1NN=C(C(F)(F)F)/C1=N/Nc1ccccc1 [5a, (Z)-4-(2-Phenylhydrazinylidene)-5-(trifluoromethyl)-2,4-dihydro-3H-pyrazol-3-one] | 100 | – | 42.8 ± 2.3 | 0.50 ± 0.03 | – | 40 | – | – | – | –
7 | O=C1NN=C(C(F)(F)F)/C1=N/Nc1ccc(Br)cc1 [5c, (4Z)-4-[2-(4-Bromophenyl)hydrazinylidene]-5-(trifluoromethyl)-2,4-dihydro-3H-pyrazol-3-one] | 100 | 125 (≈ 373 µM) | 41.5 ± 2.4 | 0.40 ± 0.02 | 5.5 ± 0.9 | – | 51 | – | – | –
8 | Cc1ccc(N/N=C2\C(=O)N(c3ccccc3)N=C2C(F)(F)C(F)(F)F)cc1 [6b, (4Z)-4-[2-(4-Methylphenyl)hydrazinylidene]-5-(pentafluoroethyl)-2-phenyl-2,4-dihydro-3H-pyrazol-3-one] | 100 | 0.9 (≈ 2.27 µM) | – | 0.04 ± 0.002 | – | 158 | 74.3 | – | – | –
9 | Cc1ccc(N/N=C2\C(=O)N(c3ccc(S(N)(=O)=O)cc3)N=C2C(F)(F)F)cc1 [5p, (4Z)-2-[4-(Aminosulfonyl)phenyl]-4-[2-(4-methylphenyl)hydrazinylidene]-5-(trifluoromethyl)-2,4-dihydro-3H-pyrazol-3-one] | 100 | 62.5 (≈ 147 µM) | – | 0.03 ± 0.002 | 5.7 ± 1 | 62.1 | 70.9 | – | – | –
10 | CC1=NNC(=O)/C1=N\Nc1ccc(C)cc1 [9a, (4Z)-5-Methyl-4-[2-(4-methylphenyl)hydrazinylidene]-2,4-dihydro-3H-pyrazol-3-one] | 100 | > 250 | 25.4 ± 1.1 | 0.86 and 0.86 ± 0.04 | – | 80.8 | – | – | – | –
11 | Cc1ccc(N/N=C2\C(=O)N(c3ccccc3)N=C2C(F)(F)F)cc1 [5f, (4Z)-4-[2-(4-Methylphenyl)hydrazinylidene]-2-phenyl-5-(trifluoromethyl)-2,4-dihydro-3H-pyrazol-3-one] | 100 | 62.5 (≈ 180 µM) | – | 0.1 ± 0.006 | – | 63 | 68 | – | – | –
12 | Cc1ccc(N/N=C2\C(=O)NN=C2C(F)(F)C(F)(F)C(F)(F)F)cc1 [7a, (4Z)-5-(Heptafluoropropyl)-4-[2-(4-methylphenyl)hydrazinylidene]-2,4-dihydro-3H-pyrazol-3-one] | 100 | > 250 | 41.5 ± 1.8 | 0.54 ± 0.03 | 9.9 ± 0.7 | – | – | 42 | 52 | –
13 | Cc1ccc(N/N=C2\C(=O)N(C)N=C2C(F)(F)F)cc1 [5d, (4Z)-2-Methyl-4-[2-(4-methylphenyl)hydrazinylidene]-5-(trifluoromethyl)-2,4-dihydro-3H-pyrazol-3-one] | 100 | 15.6 (≈ 54.9 µM) | 161 ± 3.2 | 0.15 ± 0.01 | – | – | – | – | – | inactive
